Measured values from patent US20220146526A1, “METHOD FOR EVALUATING SAMPLE, ANALYSIS METHOD, METHOD FOR DETECTING DEGRADED SAMPLE, MARKER FOR DETECTING DEGRADED BLOOD PLASMA SAMPLE, AND MARKER FOR DETECTING DEGRADED SERUM SAMPLE” (SHIMADZU CORPORATION, priority 2019, published 2022).

Tests used:
Format in all cases: physicochemical, human
[1] = GC/MS of serum sample: number of times of freezing and thawing (Table I); parameters: key to Rate of increase or decrease / Rate of increase or decrease (first value, increase): detection intensity relative to 2 freeze-thaw cycles = 1; conditions: serum, GC/MS
Method in brief: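 Detection intensities are ratios to the value after two freeze–thaw cycles, which is set as 1, compared against 4, 6 and 10 cycles. Analysis used methoxymation and trimethylsilylation derivatization, then GC/MS with EI ionization and multiple reaction monitoring on a BPX5 column. Serum came from blood held at room temperature and spun at 3500 rpm for 5 min.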

[2] = LC/MS of blood plasma sample: number of times of freezing and thawing (Table F)
Method in brief: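 Values are detection intensities normalised to 1 for plasma thawed twice, compared against 4, 6 and 10 freeze-thaw cycles. Measured by electrospray LC/MS in MRM mode, formic acid water/acetonitrile mobile phase, column at 40° C. Plasma came from EDTA blood, cooled to 4° C and spun at 3000 rpm for 15 min.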

[3] = GC/MS of serum sample: time from blood collection to centrifugation (Table G); conditions: blood collection to centrifugation
Method in brief: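 Values express detection intensity as a ratio to the sample centrifuged 15 minutes after blood collection (taken as 1). Serum was derivatized by methoxymation and trimethylsilylation, then analysed by electron-ionization GC/MS using multiple reaction monitoring on a BPX5 column ramped from 60 to 330° C.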

[4] = GC/MS of serum sample: time from centrifugation to isolation (Table H); parameters: key to Rate of increase or decrease / Rate of increase or decrease (first value, increase): detection intensity relative to 1 at 30 min centrifugation-to-isolation
Method in brief: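 Values are GC/MS (EI, MRM) detection intensities of methoxymated/trimethylsilylated serum, normalised to 1 for the 30-min sample. Serum was isolated 30 min, 1 h or 6 h after room-temperature centrifugation (3500 rpm, 5 min) of blood.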

[5] = LC/MS of serum sample: time from blood collection to centrifugation (Table J)
Method in brief: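 Detection intensities are expressed relative to 1 for samples centrifuged 15 min after blood collection; centrifugation was at room temperature, 3500 rpm, 5 min. Frozen serum was run by electrospray LC-MS in MRM mode, with 0.1% formic acid water/acetonitrile at 0.25 mL/min on a 40 °C F5 column.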

[6] = LC/MS of serum sample: number of times of freezing and thawing (Table M); parameters: key to Rate of increase or decrease: detection intensity relative to 1 at 2 freeze-thaw cycles
Method in brief: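 Values are detection intensities relative to serum thawed twice, versus 4, 6 or 10 freeze-thaw cycles. Serum came from blood spun at room temperature, 3500 rpm for 5 minutes. Analysis: electrospray LC/MS in MRM mode, Discovery HS F5-3 column, 40° C, 0.1% formic acid in water and acetonitrile.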

[7] = LC/MS of serum sample: time from centrifugation to isolation (Table K); parameters: key to Rate of increase or decrease: detection intensity relative to the 30-minute value set as 1
Method in brief: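 Serum left at room temperature 30 min, 1 h or 6 h between centrifugation (3500 rpm, 5 min, room temperature) and isolation, then frozen and analysed by LC/MS (Discovery HS F5-3 column, 40° C., 0.1% formic acid water/acetonitrile, electrospray, MRM). Values are detection intensity relative to the 30-min condition set to 1.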

[8] = LC/MS of blood plasma sample: time from blood collection to cooling of blood (Table E); parameters: key to Rate of increase or decrease / Rate of increase or decrease (first value, increase): detection intensity relative to ≤1 min to cooling = 1
[9] = LC/MS of blood plasma sample: time from blood collection to centrifugation (Table D); conditions: blood collection to centrifugation
Method in brief: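 Detection intensities are expressed relative to samples centrifuged 15 min after collection (=1), measured by electrospray LC/MS in MRM mode (Discovery HS F5-3, 40 °C, formic acid water/acetonitrile gradient at 0.25 mL/min). EDTA blood from a healthy donor was held at 4 °C, centrifuged at 4 °C, 3000 rpm, 15 min, and plasma frozen.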

[10] = detection intensity relative to 1 at 2 times, freezing and thawing 4 times
[11] = detection intensity, freezing and thawing 4 times vs 2 times
[12] = detection intensity relative to 1 at 15 minutes, after 4 hours
[13] = detection intensity, after 4 hours vs 15 minutes

Structure (SMILES): Nc1ncnc2c1ncn2[C@@H]1O[C@H](CO)[C@@H](O)[C@H]1O [Adenosine]
- Rate of increase or decrease [1, 10]: 0.36
- Increase or decrease [1, 11]: Decrease
- Rate of increase or decrease [2, 10]: 0.58
- Increase or decrease [2, 11]: Decrease
- Rate of increase or decrease [3, 12]: 0.17
- Increase or decrease [3, 13]: Decrease
- Rate of increase or decrease ([4]; detection intensity relative to 1 at 30 minutes, after 1 hour): 3.11
- Increase or decrease ([4]; detection intensity, after 1 hour vs 30 minutes): Increase
- Rate of increase or decrease ([5]; after 4 hours from blood collection to centrifugation, detection intensity relative to 1 at 15 minutes): 0.29
- Increase or decrease ([5]; serum sample, LC/MS, detection intensity vs 15 minutes from blood collection to centrifugation): Decrease
- Time when compound is affected ([5]; serum sample, LC/MS, time from blood collection to centrifugation, detection intensity changed by 30% or more vs 15 minutes): After 4 hours
- Rate of increase or decrease ([6]; 4 times of freezing and thawing, detection intensity relative to 1 at 2 times): 0.54
- Number of times when compound is affected ([6]; serum sample, LC/MS, detection intensity changed by 30% or more vs 2 times of freezing and thawing): 4 times
- Increase or decrease ([6]; serum sample, LC/MS, detection intensity vs 2 times of freezing and thawing): Decrease
- Rate of increase or decrease ([7]; after 1 hour from centrifugation to isolation, detection intensity relative to 1 at 30 minutes): 0.07
- Increase or decrease ([7]; serum sample, LC/MS, detection intensity vs 30 minutes from centrifugation to isolation): Decrease
- Time when compound is affected ([7]; serum sample, LC/MS, time from centrifugation to isolation, detection intensity changed by 30% or more vs 30 minutes): After 1 hour hours
- Rate of increase or decrease ([8]; detection intensity relative to 1 at 1 minute or less, blood collection to cooling 5 minutes): 1.52
- Increase or decrease ([8]; detection intensity, blood collection to cooling 5 minutes or more vs 1 minute or less): Increase
- Rate of increase or decrease [9, 12]: 1.39
- Increase or decrease [9, 13]: Increase
